This is an account of results in patent US8906925B2, “Pyrido[4,3-B]indoles containing rigid moieties” (Medivation Technologies, Inc., priority 2008, dated 2014).

Several values for one entry are separate records, joined by “and”; a condition that tells them apart may be missing. Equal values may be shown once.

The subject of assay [1] is rat mixed cortical cultures. Put plainly: Neurite outgrowth in rat mixed cortical cultures. The format is cell-based. The following applies: 50 nM, 48 h, vs vehicle. As for the experimental part: Cortical mixed cultures are prepared from E18 Wistar rat embryos. The cortices are dissected out and the tissue was cut to small pieces. The cells are separated by 15-min. incubation with DNase and papain. The cells are collected by centrifugation (1500 rpm, 5 min.). The tissue is triturated with a pipette and the cells are plated using the micro-islet protocol (20 000 cells in […] medium) on poly-L-lysine coated 48 wells, in MEM supplemented with 2 mM glutamine, […] gentamicin, 10% heat-inactivated fetal bovine serum (FBS-HI) and 10% heat-inactivated horse serum (HS-HI). After the cells had attached to the well, 250 μl medium is added to the wells. […] BDNF levels in the conditioned media are determined with a BDNF ELISA using the manufacturers (Promega, BDNF Emax® ImmunoAssay System, catalog number: G7610) instructions.
The cultures are fixed with 4% formaldehyde in 0.01 M PBS for 30 min. and washed once with PBS. […] The immunopositive cells are visualized by a fluorescence microscope equipped with appropriate filter set, and documented by a high resolution image capturing. The number of cells per field (4 field per well) are counted, and the neurite outgrowth was quantified using Image Pro Plus software. […]
Compounds of the invention were evaluated on their effect on neurite outgrowth in rat mixed neuronal cultures. […]

For assay [2], the target named is human recombinant serotonin 5-HT2A receptor (Homo sapiens, UniProt P28223). Briefly: 5-HT2A agonist/antagonist functional assay (cytosolic Ca2+ fluorescence, HEK-293 cells). The format is cell-based. The text has this:
To determine for agonist or antagonist activity of compounds of the invention in functional assays, human recombinant serotonin 5-HT2A receptor expressed in human embryonic kidney (HEK-293) cells (Jerman J C, Brough S J, Gager T, Wood M, Coldwell M C, Smart D and Middlemiss D N, Eur J Pharmacol, 414: 23-30, 2001) or human recombinant serotonin 5-HT7 receptor expressed in CHO cells (Adham, et al. J. Pharmacol. Exp. Ther. 287:508-514, 1998) was used. Cells were suspended in DMEM buffer, and distributed in microplates. For the 5-HT2A assay, a cytoplasmic calcium fluorescent indicator which varies proportionally to the free cytosolic Ca^2+ ion concentration was mixed with probenicid in HBSS buffer complemented with 20 mM Hepes (pH 7.4), added into each well and equilibrated with the cells for 30 min. at 37° C. followed by 30 min. at 22° C. For the 5-HT7 assay, the reaction product was cAMP, detected by HTRF.
To measure 5-HT2A agonist effects, compounds of the invention, reference agonist or HBSS buffer (basal control) was added to the cells and changes in fluorescence intensity were measured using a microplate reader.
The standard reference antagonist was ketanserin (5-HT2A) or mesulergine (5-HT7), which was tested in each experiment at several concentrations to generate a concentration-response curve from which its IC50 value was calculated. […]

The target in assay [3] is T1, human recombinant serotonin 5-HT1B receptor (Homo sapiens, UniProt P28222).
T1 construct: expressed in transfected cells; host or cells: CHO-K1 cell line, membrane extracts
T1 sequence (P28222 whole entry): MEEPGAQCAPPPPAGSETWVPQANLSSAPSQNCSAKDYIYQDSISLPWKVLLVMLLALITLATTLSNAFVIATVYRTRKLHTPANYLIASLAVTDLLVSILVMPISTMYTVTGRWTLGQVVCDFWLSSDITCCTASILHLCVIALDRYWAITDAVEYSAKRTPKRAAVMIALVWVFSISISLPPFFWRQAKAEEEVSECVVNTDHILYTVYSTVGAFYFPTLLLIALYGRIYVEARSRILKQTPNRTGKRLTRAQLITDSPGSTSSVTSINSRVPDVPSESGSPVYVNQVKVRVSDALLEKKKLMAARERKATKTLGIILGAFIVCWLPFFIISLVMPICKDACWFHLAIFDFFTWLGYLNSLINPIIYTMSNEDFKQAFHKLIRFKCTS
Briefly: 5-HT1B radioligand binding competition assay ([3H]5-CT, CHO-K1 membranes). The following applies: 5 μM, in duplicate, average. As for the experimental part:
To determine the binding activity at the human recombinant serotonin 5-HT1B receptor of compounds of the invention, CHO-K1 cell line expressing the human 5-HT1B recombinant receptor was amplified to prepare membranes used for the radioligand binding assay throughout the study. Radioligand binding competition on 5-HT1B was performed by adding successively in the wells of a 96 well plate (Master Block, Greiner, 786201). […] The plate was incubated 60 min at 25° C. in a water bath and then filtered over GF/B filters (Perkin Elmer, 6005177, presoaked in 0.5% PE1 for 2 h at room temperature) with a Filtration unit (Perkin Elmer). The filters were washed 3× with 0.5 mL of ice-cold washing buffer (50 mM Tris pH 7.4). 50 μL Microscint 20 (Packard) was added and the plate was incubated 15 min on an orbital shaker and then counted with a TopCount™ for 1 min/well.
The reference value thus obtained for the test was compared to a historical value obtained from the same receptor and used to validate the experimental session. […] For replicate determinations, the maximum variability tolerated in the test was of +/−20% around the average of the replicates.
Compounds were tested for binding activity in the radioligand binding competition assay on human 5-HT1B receptor, at one concentration […], in duplicate. Dose-response data from test compounds were analyzed with XLfit (IDBS) software using nonlinear regression applied to a sigmoidal dose-response model.
Dose-response data was analyzed with XLfit (IDBS) software using non-linear regression applied to a sigmoidal dose-response model.

Sequence of human recombinant serotonin 5-HT2A receptor (P28223 whole entry): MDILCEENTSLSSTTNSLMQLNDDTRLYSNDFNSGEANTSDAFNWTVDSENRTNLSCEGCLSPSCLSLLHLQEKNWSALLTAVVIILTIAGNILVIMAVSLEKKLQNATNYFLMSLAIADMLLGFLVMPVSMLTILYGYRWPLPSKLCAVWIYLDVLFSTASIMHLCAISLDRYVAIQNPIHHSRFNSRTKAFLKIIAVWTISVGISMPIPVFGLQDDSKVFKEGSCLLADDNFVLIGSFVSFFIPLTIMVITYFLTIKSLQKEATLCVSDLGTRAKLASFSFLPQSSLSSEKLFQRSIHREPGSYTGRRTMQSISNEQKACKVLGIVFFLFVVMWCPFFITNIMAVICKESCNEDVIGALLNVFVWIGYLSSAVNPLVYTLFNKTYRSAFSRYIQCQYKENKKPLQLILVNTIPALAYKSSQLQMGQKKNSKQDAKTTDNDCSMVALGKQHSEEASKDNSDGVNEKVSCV

In the case of `C/C(=C\n1c2c(c3cc(Cl)ccc31)CN(C)CC2)c1ccc(F)cc1` [Compound 83, (E)-8-chloro-5-(2-(4-fluorophenyl)prop-1-enyl)-2,3,4,5-tetrahydro-2-methyl-1H-pyrido[4,3-b]indole], the “Mean Process+Branch Number (number of branched processes)” value in assay [1] is “significantly increased”. In assay [2], the EC50 (as a rule, the concentration needed to bring the measured effect to its halfway point) was found to be 3.1 µM. The half-maximal inhibitory concentration (IC50) (as a rule, the concentration needed to halve the response being measured) in assay [2] (vs 3 nM 5-HT) was 0.97 µM and > 1 µM.

As for `COc1ccc(C(C)(O)Cn2c3c(c4cc(C)ccc42)CN(C)CC3)cc1` (stereo not shown) [Compound 174, 1-(2,8-dimethyl-3,4-dihydro-1H-pyrido[4,3-b]indol-5(2H)-yl)-2-(4-methoxyphenyl)propan-2-ol], the “5-HT1B (5 μM) % Binding relative to bound radioligand” value in assay [3] was 16%.
